# Measured values published in US20240246956A1, “CLASS IIA HISTONE DEACETYLASE (HDAC) DEGRADER LIGANDS AND METHODS OF USE THEREOF” (DANA-FARBER CANCER INSTITUTE, INC., priority 2021, published 2024).
# Tests used:
# HDAC4 = HDAC4 (Homo sapiens, UniProt P56524); assay: In vitro HDAC enzymatic assay (Reaction Biology); type: biochemical; design: purchased Reaction Biology (Devault, PA); details: dose response, FIG. 2A-2B
# CRBN = biological target: T1, CRBN (Homo sapiens, UniProt Q96SW2); assay: Cellular CRBN engagement assay (competition with dBET6, BRD4BD2-eGFP reporter); type: cell-based; details: FIG. 1; for cell permeability (from cellular CRBN engagement): Flp-In 293 reporter cells; for IC50: competition with 100 nM dBET6, 5 h, Flp-In 293 cells expressing BRD4BD2-eGFP and mCherry
# T1 construct: endogenous in cells; host or cells: Flp-In 293 cells stably expressing BRD4BD2-eGFP and mCherry
# Procedure: BRD4BD2 was subcloned into mammalian pcDNA5/FRT Vector (Ampicillin and Hygromycin B resistant) modified to contain MCS-eGFP-P2A-mCherry. Stable cell lines expressing eGFP-protein fusion and mCherry reporter were generated using Flp-In™ 293 system. Plasmid (0.3 μg) and pOG44 (4.7 μg) DNA were preincubated in 100 μL of Opti-MEM™ I (Gibco™, Life Technologies™) media containing 0.05 mg/ml Lipofectamine 2000 (Invitrogen™) for 20 min and added to Flp-In™ 293 cells containing 1.9 ml of Dulbecco's Modified Eagle Medium (DMEM) media (Gibco™, Life Technologies™) per well in a 6-well plate format (Falcon, 353046). Cells were propagated after 48 h and transferred into a 10 cm^2 plate (Corning®, 430165) in DMEM media containing 50 μg/ml of Hygromycin B (Invitrogen™, REF 10687010) as a selection marker. Following 2-3 passage cycles, FACS (FACSAria™ II, BD) was used to enrich for cells expressing eGFP and mCherry.
# Stable cells expressing the BRD4BD2-eGFP protein fusion and the mCherry reporter were seeded at a density of 1000-4000 cells/well in a 384-well plate with 50 μL per well of FluoroBrite™ DMEM media (Thermo Fisher Scientific, A18967) supplemented with 10% FBS a day before compound treatment. Compounds and 100 nM dBET6 were dispensed using a D300e Digital Dispenser (HP), normalized to 0.5% DMSO, and incubated with the cells for 5 h. The assay plate was imaged immediately using an acument High Content Imager (TTP Labtech) with 488 nm and 561 nm lasers in a […] grid per well format. The resulting images were analyzed using CellProfiler™ (Carpenter et al., Genome Biol. 7(10):R100 (2006)). A series of image analysis steps (an ‘image analysis pipeline’) was constructed. First, the red and green channels were aligned and cropped to target the middle of each well (to avoid analysis of the heavily clumped cells at the edges). A background illumination function was calculated for both red and green channels of each well individually and subtracted to correct for illumination variations across the 384-well plate from various sources of error. An additional step was then applied to the green channel to suppress the analysis of large auto fluorescent artifacts and enhance the analysis of cell specific fluorescence by way of selecting for objects under a given size (30 A.U.) and with a given shape (speckles). mCherry-positive cells were then identified in the red channel by filtering for objects 8-60 pixels in diameter and by using intensity to distinguish between clumped objects. […] The fraction of GFP-positive cells/mCherry-positive cells in each well was then calculated, and the green and red images were rescaled for visualization. […]
# HDAC5 = HDAC5 (Homo sapiens, UniProt Q9UQL6); assay: In vitro HDAC enzymatic assay (Reaction Biology); type: biochemical; design: purchased Reaction Biology (Devault, PA); details: dose response, FIG. 2A-2B
# HDAC9 = biological target: T2, HDAC9 (Homo sapiens, UniProt Q9UKV0); assay: In vitro HDAC enzymatic assay (Reaction Biology); type: biochemical; details: dose response, FIG. 2A-2B
# T2 construct: purchased Reaction Biology (Devault, PA)
Compound,inhibition of HDAC4 (HDAC4),cell permeability (from cellular CRBN engagement) (CRBN),IC50 (CRBN) [µM],inhibition of HDAC5 (HDAC5),inhibition of HDAC9 (HDAC9)
O=C1CCC(N2C(=O)c3cccc(NCCCCCCN4CCC(CNC(=O)c5cccc(-c6noc(C(F)(F)F)n6)c5)(c5nc(-c6ccccc6)cs5)CC4)c3C2=O)C(=O)N1 (stereo not shown) [Compound 1],inhibited,cell permeable,0.14,inhibited,inhibited
"CCN(CCNc1cccc2c1C(=O)N(C1CCC(=O)NC1=O)C2=O)C[C@@H](C)NC(=O)c1ccc(-c2noc(C(F)(F)F)n2)cc1 (stereo partly drawn) [Compound 16, N-((2R)-1-((2-((2-(2,6-dioxopiperidin-3-yl)-1,3-dioxoisoindolin-4-yl)amino)ethyl)(ethyl)amino)propan-2-yl)-4-(5-(trifluoromethyl)-1,2,4-oxadiazol-3-yl)benzamide]",inhibited,cell permeable,6.98,inhibited,inhibited
